In patent publication US20180140578A1, “METHODS AND COMPOSITIONS FOR THE DIAGNOSIS AND SELECTIVE TREATMENT OF CANCER” (Board of Regents of the University of Texas System, priority 2016, published 2018):
Read-outs that look alike come from different tables or passages of the source.

Key:
Test in all cases: IC50 assay, NSCLC cell lines (Cell Titer Glo, total ATP)
Type in all cases: cell-based
H1355 = conditions: Homo sapiens
Description: (§1) Cells were plated at ˜15% confluence in a media comprising 5% concentration of fetal bovine serum supplemented with RPMI, which included 2 mM L-Glutamine in a 96 well dish. […] Following three days of incubation in a 5% CO2 incubator, the total ATP in each well was quantified using Cell Titer Glo (Promega). […] The solid lines represent the medians.

HCC4006 = conditions: Homo sapiens
Description: as §1

H2172 = conditions: Homo sapiens
Description: as §1

H920 = conditions: Homo sapiens
Description: as §1

H1581 = conditions: Homo sapiens
Description: as §1

H2887 = conditions: Homo sapiens
Description: as §1

LC-2/AD = conditions: Homo sapiens
Description: as §1

H1395 = conditions: Homo sapiens
Description: as §1

HCC95 = conditions: Homo sapiens
Description: as §1

H2228 = conditions: Homo sapiens
Description: as §1

H2342 = conditions: Homo sapiens
Description: as §1

WI38 = conditions: Homo sapiens
Description: as §1

H1755 = conditions: Homo sapiens
Description: as §1

HCC1359 = conditions: Homo sapiens
Description: as §1

A427 = conditions: Homo sapiens
Description: as §1

HCC1438 = conditions: Homo sapiens
Description: as §1

H2126 = conditions: Homo sapiens
Description: as §1

H441 = conditions: Homo sapiens
Description: as §1

HCC2450 = conditions: Homo sapiens
Description: as §1

H2452 = conditions: Homo sapiens
Description: as §1

H1573 = conditions: Homo sapiens, NCI-H1573, read-out: Indisulam IC50 (log 10) (converted), U2AF1 WT
Description: as §1

H1568 = conditions: Homo sapiens
Description: as §1

H1993 = conditions: Homo sapiens
Description: as §1

H838 = conditions: Homo sapiens
Description: as §1

H1693 = conditions: Homo sapiens
Description: as §1

H2106 = conditions: Homo sapiens
Description: as §1

H358 = conditions: Homo sapiens
Description: as §1

HCC366 = conditions: Homo sapiens
Description: as §1

[1] = read-out: Indisulam IC50 (log 10) (converted), U2AF1 WT
[2] = read-out: Indisulam IC50, U2AF1 WT

What does the source list for NS(=O)(=O)c1ccc(S(=O)(=O)Nc2cccc3c(Cl)c[nH]c23)cc1 [Indisulam, indisulam]?
IC50 (H1355; NCI-H1355, read-out: Indisulam IC50 (log 10) (converted), U2AF1 WT): 2.5 µM; IC50 (H1355; NCI-H1355, read-out: Indisulam IC50, U2AF1 WT): 2.5 µM; IC50 (HCC4006; [1]): 0.735 µM; IC50 (HCC4006; [2]): 0.735 µM; IC50 (H2172; NCI-H2172, read-out: Indisulam IC50 (log 10) (converted), U2AF1 WT): 20.5 µM; IC50 (H2172; NCI-H2172, read-out: Indisulam IC50, U2AF1 WT): 20.5 µM; IC50 (H920; [1]): 2.17 µM; IC50 (H920; [2]): 2.17 µM; IC50 (H1581; NCI-H1581, read-out: Indisulam IC50 (log 10) (converted), U2AF1 WT): 19.2 µM; IC50 (H1581; NCI-H1581, read-out: Indisulam IC50, U2AF1 WT): 19.2 µM; IC50 (H2887; NCI-H2887, read-out: Indisulam IC50 (log 10) (converted), U2AF1 WT): 9.63 µM; IC50 (H2887; NCI-H2887, read-out: Indisulam IC50, U2AF1 WT): 9.63 µM; IC50 (LC-2/AD; read-out: Indisulam IC50 (log 10) (converted), U2AF1 S34F): 0.376 µM; IC50 (LC-2/AD; read-out: Indisulam IC50, U2AF1 S34F): 0.376 µM; IC50 (H1395; NCI-H1395, read-out: Indisulam IC50 (log 10) (converted), U2AF1 WT): 10.9 µM; IC50 (H1395; NCI-H1395, read-out: Indisulam IC50, U2AF1 WT): 10.9 µM; IC50 (HCC95; [1]): 9.5 µM; IC50 (HCC95; [2]): 9.5 µM; IC50 (H2228; NCI-H2228, read-out: Indisulam IC50 (log 10) (converted), U2AF1 WT): 1.26 µM; IC50 (H2228; NCI-H2228, read-out: Indisulam IC50, U2AF1 WT): 1.26 µM; IC50 (H2342; NCI-H2342, read-out: Indisulam IC50 (log 10) (converted), U2AF1 WT): 58.6 µM; IC50 (H2342; NCI-H2342, read-out: Indisulam IC50, U2AF1 WT): 58.6 µM; IC50 (WI38; WI-38, read-out: Indisulam IC50 (log 10) (converted), U2AF1 WT): 10 µM; IC50 (WI38; WI-38, read-out: Indisulam IC50, U2AF1 WT): 10 µM; IC50 (H1755; NCI-H1755, read-out: Indisulam IC50 (log 10) (converted), U2AF1 WT): 252 µM; IC50 (H1755; NCI-H1755, read-out: Indisulam IC50, U2AF1 WT): 252 µM; IC50 (HCC1359; read-out: Indisulam IC50 (log 10) (converted), U2AF1 WT (listed twice)): ≥ 50 µM; IC50 (HCC1359; read-out: Indisulam IC50, U2AF1 WT (listed twice)): ≥ 50 µM; IC50 (A427; A-427, read-out: Indisulam IC50 (log 10) (converted), U2AF1 WT): 13.9 µM; IC50 (A427; A-427, read-out: Indisulam IC50, U2AF1 WT): 13.9 µM; IC50 (HCC1438; [1]): 22.7 µM; IC50 (HCC1438; [2]): 22.7 µM; IC50 (H2126; NCI-H2126, read-out: Indisulam IC50 (log 10) (converted), U2AF1 WT): 20.5 µM; IC50 (H2126; NCI-H2126, read-out: Indisulam IC50, U2AF1 WT): 20.5 µM; IC50 (H441; NCI-H441, read-out: Indisulam IC50 (log 10) (converted), U2AF1 S34F): 59.5 µM; IC50 (H441; NCI-H441, read-out: Indisulam IC50, U2AF1 S34F): 59.5 µM; IC50 (HCC2450; [1]): 135 µM; IC50 (HCC2450; [2]): 135 µM; IC50 (H2452; NCI-H2452, read-out: Indisulam IC50 (log 10) (converted), U2AF1 WT): 1.21 µM; IC50 (H2452; NCI-H2452, read-out: Indisulam IC50, U2AF1 WT): 1.21 µM; IC50 (H1573): ≥ 500 µM; IC50 (H1568; NCI-H1568, read-out: Indisulam IC50 (log 10) (converted), U2AF1 WT): 265 µM; IC50 (H1568; NCI-H1568, read-out: Indisulam IC50, U2AF1 WT): 265 µM; IC50 (H1993; NCI-H1993, read-out: Indisulam IC50 (log 10) (converted), U2AF1 WT): 1.42 µM; IC50 (H1993; NCI-H1993, read-out: Indisulam IC50, U2AF1 WT): 1.42 µM; IC50 (H838; NCI-H838, read-out: Indisulam IC50 (log 10) (converted), U2AF1 WT): 1.03 µM; IC50 (H838; NCI-H838, read-out: Indisulam IC50, U2AF1 WT): 1.03 µM; IC50 (H1693; NCI-H1693, read-out: Indisulam IC50 (log 10) (converted), U2AF1 WT): 5.17 µM; IC50 (H1693; NCI-H1693, read-out: Indisulam IC50, U2AF1 WT): 5.17 µM; IC50 (H2106; [1]): 0.616 µM; IC50 (H2106; [2]): 0.616 µM; IC50 (H358; NCI-H358, read-out: Indisulam IC50 (log 10) (converted), U2AF1 WT): ≥ 500 µM; IC50 (H358; NCI-H358, read-out: Indisulam IC50, U2AF1 WT): 2840 µM; IC50 (HCC366; [1]): 6.91 µM; IC50 (HCC366; [2]): 6.91 µM
